Where two headings read alike, the source gives them in different places. Bridge positions count the residues as written; N and C are the ends. Square brackets hold non-standard residues; d marks the D form. Peptide text beside a SMILES is read from it. Dab = NCC[C@H](N)C(=O)O
Experiments:
[1] = target: T1, hERG potassium channel (Homo sapiens, UniProt Q12809); assay: hERG current inhibition, single cell patch clamp in HEK293 cells; assay type: cell-based
T1 construct: expressed in transfected cells
Protocol: Currents were recorded via single cell patch clamp.

[2] = GLP 14 day repeat dose study in rats, toxicology; conditions: rat
Protocol: Parameters assessed during the in-life phase of the study included weekly body weights, clinical observations, survival, food consumption, ophthalmology, clinical pathology, and urine and plasma toxicokinetics. At necropsy, gross observations were recorded, organ weights were measured, and specific tissues were collected. Histopathologic assessment was conducted on tissue sections stained with hematoxylin and eosin (H&E).
The use of an escalation phase was due to the acute histamine and/or complement mediated reactions commonly seen in rats with a broad range of polymyxins.
For toxicology assessment, all animals were observed twice daily for mortality and moribundity. Clinical examinations were performed daily, and detailed physical examinations were performed weekly. Ophthalmic examinations were performed during once prior to study initiation and once during the study. Clinical pathology parameters (including Blood Urea Nitrogen and Serum Creatinine) were analyzed for all animals assigned to the scheduled necropsies. Complete necropsies were conducted on all animals, and selected organs were weighed at the scheduled necropsies. […] Gross lesions and infusion sites were examined from all animals in the low-dose group at the primary necropsy. Recovery was assessed in the mid-dose group and the control group following a 28-day non-dosing period. Following the 28-day non-dosing (recovery) period, complete necropsies were conducted on all animals, and selected organs were weighed at the scheduled necropsy. Selected tissues were examined microscopically from all animals.

[3] = GLP 14 day repeat dose toxicology study in monkeys incl. CNS assessment; conditions: cynomolgus monkey, in vivo
Protocol: Histopathologic assessment was conducted on tissue sections stained with hematoxylin and eosin (H&E).
The neurological assessment was performed on study day 9 or 10 and compared to both pre-test data (study day −6 or −7) as well as the vehicle control.

[4] = Cardiopulmonary safety pharmacology study in monkeys; conditions: for Body Temperature / Heart Rate / Mean Arterial Blood Pressure / QTc Interval / Respiratory Rate: monkey, in vivo
Protocol: The monkeys in the study were telemeterized prior to study start. Data was collected in one minute intervals over a 24 hour period. The data was reported in 15 minute intervals over the first three hours.

[5] = Efficacy studies in mice (mouse thigh studies); assay type: in vivo; conditions: mouse thigh studies with SPR741 and rifampin
Protocol: A 70 kg human weight was used in all models.
Pharmacologic HED was then calculated using the equation below: […]

[6] = rat, following 14 days of repeated dosing
[7] = in vivo; conditions: male, mouse, plasma, 10 mg/kg
Protocol: (§1) PK analysis was performed using Phoenix® WinNonlin® Version 6.3 (Pharsight Corp. [Mountain View, Calif.]). […] The standard species body weights were assumed to perform allometric scaling purposes. For scaling, mouse, rat, monkey, and human weight were assumed to be 0.02, 0.25, 5, and 70 kg, respectively. PK data from only male animals were available for scaling.
(§2) A MixRatio (additive and multiplicative) weighting was applied for all PK modeling.
(§3) Single dose simulations were done using the low clearance estimate and high clearance estimate obtained from allometric scaling. […] Day 1 data was unavailable for rat. Only 2-3 measurable time points were used in the mouse PK data.

[8] = in vivo; conditions: male, rat, plasma, 10 mg/kg
Protocol: as §1, §2, §3

[9] = in vivo; conditions: male, monkey, plasma, 20 mg/kg
Protocol: as §1, §2, §3

[10] = in vivo; conditions: Sprague-Dawley, rat, plasma, iv, 1-hour IV infusion twice daily; for AUC(0-t): AUC(0-24)
[11] = human, fixed exponent, monkey PK data
[12] = human, fixed exponent, mouse PK data
[13] = human, fixed exponent, rat PK data
[14] = human, floating exponent, mouse, rat and monkey PK data
[15] = human, floating exponent, rat and monkey PK data
[16] = 5 mg/kg/day, 5 mg/kg/day, study day 1
[17] = 5 mg/kg/day, 5 mg/kg/day, study day 14
[18] = 10 mg/kg/day, 10 mg/kg/day, study day 1
[19] = 10 mg/kg/day, 10 mg/kg/day, study day 14
[20] = 15 mg/kg/day, 15 mg/kg/day, study day 1
[21] = 15 mg/kg/day, 15 mg/kg/day, study day 14

T1 sequence (Q12809 whole entry): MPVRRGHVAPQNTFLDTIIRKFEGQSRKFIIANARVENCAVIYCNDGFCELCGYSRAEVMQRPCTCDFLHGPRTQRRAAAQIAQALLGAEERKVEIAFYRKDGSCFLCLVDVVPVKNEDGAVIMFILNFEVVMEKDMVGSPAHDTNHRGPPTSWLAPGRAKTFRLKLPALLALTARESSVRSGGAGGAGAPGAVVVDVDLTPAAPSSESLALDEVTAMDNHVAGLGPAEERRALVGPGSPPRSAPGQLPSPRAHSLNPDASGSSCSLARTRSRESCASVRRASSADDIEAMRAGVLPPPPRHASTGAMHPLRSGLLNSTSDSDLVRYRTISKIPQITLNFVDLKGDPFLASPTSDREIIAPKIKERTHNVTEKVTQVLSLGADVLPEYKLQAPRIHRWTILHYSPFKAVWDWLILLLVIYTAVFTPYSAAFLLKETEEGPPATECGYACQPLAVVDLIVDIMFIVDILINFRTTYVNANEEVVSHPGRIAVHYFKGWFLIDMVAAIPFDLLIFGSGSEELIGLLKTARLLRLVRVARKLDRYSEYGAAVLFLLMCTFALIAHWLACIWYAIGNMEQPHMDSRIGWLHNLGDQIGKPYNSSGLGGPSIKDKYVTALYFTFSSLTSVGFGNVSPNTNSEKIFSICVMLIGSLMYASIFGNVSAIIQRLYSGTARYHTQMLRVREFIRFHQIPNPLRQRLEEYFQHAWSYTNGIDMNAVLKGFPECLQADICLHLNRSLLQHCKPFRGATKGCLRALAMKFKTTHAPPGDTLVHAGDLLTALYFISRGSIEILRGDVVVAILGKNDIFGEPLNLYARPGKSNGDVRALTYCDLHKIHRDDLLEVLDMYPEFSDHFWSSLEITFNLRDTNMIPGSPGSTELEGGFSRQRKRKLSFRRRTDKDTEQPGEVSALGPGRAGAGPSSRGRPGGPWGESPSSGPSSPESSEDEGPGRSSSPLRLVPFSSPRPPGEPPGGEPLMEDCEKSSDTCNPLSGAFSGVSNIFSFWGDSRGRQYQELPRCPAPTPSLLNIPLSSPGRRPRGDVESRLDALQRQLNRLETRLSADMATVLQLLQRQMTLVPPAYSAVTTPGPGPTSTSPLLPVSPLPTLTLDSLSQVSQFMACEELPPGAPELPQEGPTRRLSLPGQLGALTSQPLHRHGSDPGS

**Q.** With COc1cc(N)c(Cl)cc1C(=O)NC1CCN(CCCOc2ccc(F)cc2)CC1OC (stereo not shown) [Cisapride, reference compound] as the molecule, how does the inhibition at 0.047 μg/mL ([1]; human) read?
**A.** The inhibition at 0.047 μg/mL was 79.8%.

**Q.** Which IC50 [1] does the source give for CC(=O)N[C@H](C(=O)N[C@H](CO)C(=O)N[C@H]1CCNC(=O)[C@H]([C@@H](C)O)NC(=O)[C@H](CCN)NC(=O)[C@H](CCN)NC(=O)[C@H](CC(C)C)NC(=O)[C@@H](Cc2ccccc2)NC(=O)[C@H](CCN)NC1=O)[C@@H](C)O [SPR741, Acetyl-Thr-dSer-cy[Dab-Dab-dPhe-Leu-Dab-Dab-Thr]] (Ac-T[dS][Dab][Dab][dF]L[Dab][Dab]T; lactam 3-C) here?
**A.** The IC50 was “could not be calculated”.

**Q.** And the “Change in mean hERG-mediated potassium currents” value ([1]; concentrations up to 300 μg/mL)?
**A.** The value was “no meaningful change”.

**Q.** What about the inhibition at 10 μg/mL ([1]; human) of the same molecule?
**A.** The inhibition at 10 μg/mL was 0.08%.

**Q.** What about the inhibition at 30 μg/mL ([1]; human) of the same molecule?
**A.** The inhibition at 30 μg/mL was -0.09%.

**Q.** What about the inhibition at 100 μg/mL ([1]; human) of the same molecule?
**A.** Its inhibition at 100 μg/mL is 1.62%.

**Q.** What about the inhibition at 300 μg/mL ([1]; human) of the same molecule?
**A.** The inhibition at 300 μg/mL was 3.87%.

**Q.** What about the Tolerability ([2]; dose levels higher than 5 mg/kg) of the same molecule?
**A.** Its Tolerability is “exhibited toxicity”.

**Q.** What about the Tolerability ([2]; in vivo, 5 mg/kg) of the same molecule?
**A.** The Tolerability was “well tolerated”.

**Q.** What about the “% BUN increase relative to control (mg/dL)” value ([2]; in vivo, 10 mg/kg/day) of the same molecule?
**A.** The value was 34%.

**Q.** What about the “% BUN increase relative to control (mg/dL)” value ([2]; in vivo, 15 mg/kg/day) of the same molecule?
**A.** The value was 59%.

**Q.** And the “% Control CRN” value ([2]; in vivo, 15 mg/kg/day)?
**A.** The value was 59%.

**Q.** And the NOAEL at 14 days ([3]; both)?
**A.** Its NOAEL at 14 days is 40 mg/kg/day.

**Q.** What about the Reversibility of nephrotoxicity [3] of the same molecule?
**A.** Its Reversibility of nephrotoxicity is “fully reversible”.

**Q.** And the “Body Temperature” value ([4]; 5 mg/kg)?
**A.** The value was 38.3 °C.

**Q.** And the “Heart Rate” value ([4]; 5 mg/kg)?
**A.** The value was 142 bpm.

**Q.** What about the “Mean Arterial Blood Pressure” value ([4]; 5 mg/kg) of the same molecule?
**A.** The value was 105 mm Hg.

**Q.** And the “QTc Interval” value ([4]; 5 mg/kg)?
**A.** The value was 220 ms.

**Q.** What about the “Respiratory Rate” value ([4]; 5 mg/kg) of the same molecule?
**A.** The value was 27.

**Q.** What about the “Body Temperature” value ([4]; 10 mg/kg) of the same molecule?
**A.** Its value is 38.3 °C.

**Q.** And the “Heart Rate” value ([4]; 10 mg/kg)?
**A.** Its value is 141 bpm.

**Q.** And the “Mean Arterial Blood Pressure” value ([4]; 10 mg/kg)?
**A.** The value was 104 mm Hg.

**Q.** And the “QTc Interval” value ([4]; 10 mg/kg)?
**A.** Its value is 222 ms.

**Q.** What about the “Respiratory Rate” value ([4]; 10 mg/kg) of the same molecule?
**A.** The value was 25.

**Q.** And the “Body Temperature” value ([4]; 20 mg/kg)?
**A.** The value was 38.7 °C.

**Q.** What about the “Heart Rate” value ([4]; 20 mg/kg) of the same molecule?
**A.** Its value is 145 bpm.

**Q.** And the “Mean Arterial Blood Pressure” value ([4]; 20 mg/kg)?
**A.** Its value is 97 mm Hg.

**Q.** And the “QTc Interval” value ([4]; 20 mg/kg)?
**A.** Its value is 220 ms.

**Q.** And the “Respiratory Rate” value ([4]; 20 mg/kg)?
**A.** The value was 26.

**Q.** And the “SPR741-related clinical signs or changes in body weight, body temperature, blood pressures, heart rate, ECG intervals, respiratory rate, tidal volume, minute volume” value ([4]; monkeys, cardiopulmonary study)?
**A.** Its value is “no SPR741-related clinical signs”.

**Q.** And the “AUC value of efficacy data” value [5]?
**A.** The value was 60 µg·h/mL.

**Q.** And the CL (human 70 kg, fixed exponent, monkey PK data)?
**A.** The CL was 70.8 mg/h/kg.

**Q.** And the CL (human 70 kg, fixed exponent, mouse PK data)?
**A.** The CL was 57.5 mg/h/kg.

**Q.** What about the CL (human 70 kg, fixed exponent, rat PK data) of the same molecule?
**A.** Its CL is 103 mg/h/kg.

**Q.** What about the CL [11] of the same molecule?
**A.** The CL was 70.8 mL/h/kg.

**Q.** And the T1/2 [11]?
**A.** Its T1/2 is 2.33 h.

**Q.** And the CL [12]?
**A.** The CL was 57.5 mL/h/kg.

**Q.** What about the T1/2 [12] of the same molecule?
**A.** The T1/2 was 2.16 h.

**Q.** And the Vd [12]?
**A.** Its Vd is 179 mL/kg.

**Q.** And the CL [13]?
**A.** Its CL is 103 mL/h/kg.

**Q.** What about the T1/2 [13] of the same molecule?
**A.** Its T1/2 is 2.31 h.

**Q.** What about the Vd [13] of the same molecule?
**A.** Its Vd is 345 mL/kg.

**Q.** And the CL [14]?
**A.** Its CL is 89.7 mL/h/kg.

**Q.** And the T1/2 [14]?
**A.** The T1/2 was 2.44 h.

**Q.** What about the Vd [14] of the same molecule?
**A.** Its Vd is 315 mL/kg.

**Q.** And the CL [15]?
**A.** The CL was 50.8 mL/h/kg.

**Q.** What about the T1/2 [15] of the same molecule?
**A.** The T1/2 was 2.34 h.

**Q.** What about the Vd [15] of the same molecule?
**A.** Its Vd is 172 mL/kg.

**Q.** What about the “Systemic exposure versus dose” value [6] of the same molecule?
**A.** Its value is “dose dependent proportional systemic exposure”.

**Q.** And the Vd [7]?
**A.** The Vd was 0.179 L/kg.

**Q.** What about the clearance [7] of the same molecule?
**A.** Its clearance is 7.37 mL/min/kg.

**Q.** And the Vd [8]?
**A.** Its Vd is 0.345 L/kg.

**Q.** And the clearance [8]?
**A.** Its clearance is 7.05 mL/min/kg.

**Q.** What about the Vd [9] of the same molecule?
**A.** Its Vd is 0.238 L/kg.

**Q.** What about the clearance [9] of the same molecule?
**A.** The clearance was 2.28 mL/min/kg.

**Q.** What about the AUC(0-t) [10, 16] of the same molecule?
**A.** The AUC(0-t) was 8200 ng·h/mL.

**Q.** And the AUC(0-t) [10, 17]?
**A.** The AUC(0-t) was 8300 ng·h/mL.

**Q.** And the Cmax [10, 16]?
**A.** Its Cmax is 3400 ng/mL.

**Q.** And the Cmax [10, 17]?
**A.** The Cmax was 3300 ng/mL.

**Q.** And the AUC(0-t) [10, 18]?
**A.** Its AUC(0-t) is 25000 ng·h/mL.

**Q.** What about the AUC(0-t) [10, 19] of the same molecule?
**A.** Its AUC(0-t) is 20300 ng·h/mL.

**Q.** What about the Cmax [10, 18] of the same molecule?
**A.** The Cmax was 9500 ng/mL.

**Q.** What about the Cmax [10, 19] of the same molecule?
**A.** The Cmax was 6700 ng/mL.

**Q.** What about the AUC(0-t) [10, 20] of the same molecule?
**A.** Its AUC(0-t) is 47400 ng·h/mL.

**Q.** What about the AUC(0-t) [10, 21] of the same molecule?
**A.** The AUC(0-t) was 32900 ng·h/mL.

**Q.** And the Cmax [10, 20]?
**A.** Its Cmax is 14900 ng/mL.

**Q.** What about the Cmax [10, 21] of the same molecule?
**A.** Its Cmax is 10800 ng/mL.
